Assays:
NF-κB pathway = assay: p65 translocation into the astrocyte nucleus in vivo
human astrocytes = assay: Human astrocyte activation and cytokine secretion in vitro; format: cell-based
Description: The effect of laquinimod on human astrocyte activation, as investigated in another study, is detailed in FIGS. 9 and 10. […] In unstimulated cells, the NF-κB dimers are sequestered in the cytoplasm by a family of inhibitors, called IκBs (Inhibitor of κB). […] Activation of the NF-κB is initiated by the signal-induced degradation of IκB proteins. This occurs primarily via activation of a kinase called the IκB kinase (IKK). When activated by signals, usually coming from the outside of the cell, the IκB kinase phosphorylates two serine residues located in an IκB regulatory domain. When phosphorylated, the IκB inhibitor molecules are modified by a process called ubiquitination, which than leads them to be degraded by a cell structure called the proteasome. With the degradation of IκB, the NF-κB complex is then freed to enter the nucleus where it can ‘turn on’ the expression of specific genes that have DNA-binding sites for NF-κB nearby. The activation of these genes by NF-κB then leads to the given physiological response, for example, an inflammatory or immune response.

[1] = tested on: H2TT (primary neuronal culture) cells; assay: Oxidative glutamate toxicity of H2TT cells; format: cell-based; details: prolonged incubation

Structure (SMILES): CCN(C(=O)c1c(O)c2c(Cl)cccc2n(C)c1=O)c1ccccc1 [Laquinimod]
- astrocyte activation (p65 translocation into the astrocyte nucleus) (NF-κB pathway): significantly reduced astrocyte activation
- pro-inflammatory cytokine secretion (human astrocytes; human astrocytes in vitro): down regulates
- astrocyte activation (human astrocytes; via the NF-κB pathway): interferes with astrocyte activation
- oxidative glutamate toxicity [1]: protects against oxidative glutamate toxicity

— US20160074380A1, “Treatment Of Neurodegenerative Diseases With Combination Of Laquinimod And Fingolimod” (TEVA PHARMACEUTICAL INDUSTRIES LTD., priority 2014, published 2016)
